According to patent US8426342B2, “Method for weed control in lawn” (priority 2008, dated 2013):

Tests used:
Capsella bursa pastoris = test: Greenhouse herbicidal effect in weed control ex. 6.2, 2- to 3-leaves stage; format: in vivo; conditions: 6 g a.i./ha
Text: (§1) That means, when applying the combinations according to the invention, herbicidal effects are observed on a harmful plant species which exceed the formal total of the effects of the herbicides present when these are applied by themselves. Alternatively, it is observed in some cases that a lower application rate is required for the herbicide combination in order to achieve the same effect on a harmful plant species in comparison with the individual products.
(§2) When the data observed already exceed the formal total (=E^A) of the data in the experiments with individual applications, they likewise exceed the expected value according to Colby, which is calculated using the formula below and is likewise regarded as an indication of synergism (cf. S. R. Colby; in Weeds 15 (1967) pp. 20 to 22): E=A+B−(A·B/100)
(§3) In this formula: • A=action of active compound (A) in % at an application rate of a g of AS/ha; • B=action of active compound (B) in % at an application rate of b g of AS/ha; • E=expected value of the action of the combination (A)+(B) in % at the combined application rate a+b g of AS/ha.
(§4) The data observed in the experiments show, at suitably low dosages, an action of the combinations which exceeds the expected values according to Colby (=E^C).

Dagitaria sanguinales = test: Effectivity testing against weed plants ex. 5.1, Abbott %; format: in vivo, Digitaria sanguinales
Text: (§5) Each plot was divided by different pre-treatments 1 week before application of the trial treatments: • A) Pre-treatment with glyphosate-isopropylammonium allowing to evaluate in this section the pre-emergence effect against weeds. • B) No pre-treatment, present winter annual weeds are received a post-emergence application.
(§6) 2005, applied on dormant turf in winter
(§7) Effectivity was rated in percent (%) herbicidal effect compared with untreated control according to the method of Abbott according to the formula [(X−Y)/X]100 where X is the absolute level/scoring of the control plants, Y is the level/scoring of the treated plants. 100% efficacy means full control; 0% efficacy means no control of the weed; all ratings above 80% are usually acceptable.

Lamium amplexcaule = test: as above; format: in vivo, Lamium amplexicaule
Text: as §5, §6, §7

[1] = system: Cynodon dactylon (Bermuda grass); test: Phytotoxicity of the turf ex. 5.1, % injury vs untreated; format: in vivo; conditions: 157 DAT
Text: as §5, §6
Additionally, phytotoxicity of the turf was rated as percent (%) injury compared with untreated control.

Aphanes arvensis = test: Effectivity testing against weed plants ex. 5.1, Abbott %; format: in vivo; conditions: 151 DAT
Text: as §5, §6, §7

Stellaria media = test: as above; format: in vivo
Text: as §5, §6, §7

Taraxacum officinalis = test: Greenhouse herbicidal effect in weed control ex. 6.2, 1- to 2-leaves stage; format: in vivo; conditions: 6 g a.i./ha
Text: as §1, §2, §3, §4

Poa annua = test: Effectivity testing against weed plants ex. 5.3, in bermuda grass turf, Abbott %; format: in vivo; conditions: 210 DAT
Text: (§8) A co-formulation containing a mixture compounds no. […] Granules were applied with a shaker can.
(§9) Location: Sports turf, North Carolina, USA
(§10) Plot size: 1.4 m^2 and 3 replicates per treatment
(§11) Application timing: 27 Mar. 2007, spring application, early post for the weed
(§12) Effectivity was rated in percent (%) herbicidal effect compared with untreated control according to the method of Abbott mentioned above (see 5.1). 100% efficacy means full control; 0% efficacy means no control of the weed; all ratings above 80% are usually acceptable.
(§13) The application and evaluation were performed as described in example 5.2 with the following difference:
(§14) Turf grass species: Cynodon dactylon, variety (bermuda grass)
(§15) Weed species: Digitaria sanguinalis, Poa annua

Digitaria sanguinalis = test: as above; format: in vivo
Text: as §8, §9, §10, §11, §12, §13, §14, §15

Cc1ccc2c(c1)[C@H](Nc1nc(N)nc([C@@H](C)F)n1)[C@@H](C)C2 (stereo in doubt) [(A21)/(A22), indaziflam]
Herbicidal effect (%) 7 DAT on Capsella bursa pastoris (Capsella bursa pastoris): 0%
Herbicidal effect (%) on Dagitaria sanguinales, Pre-emergence application after pre-treatment (Dagitaria sanguinales; 25 g a.i./ha, 187 DAT): 100%
Herbicidal effect (%) on Dagitaria sanguinales, Pre-emergence application after pre-treatment (Dagitaria sanguinales; 25 g a.i./ha, 207 DAT): 100%
Herbicidal effect (%) on Dagitaria sanguinales, Pre-emergence application after pre-treatment (Dagitaria sanguinales; 25 g a.i./ha, 234 DAT): 97%
Herbicidal effect (%) on Dagitaria sanguinales, Pre-emergence application after pre-treatment (Dagitaria sanguinales; 25 g a.i./ha, 259 DAT): 99%
Herbicidal effect (%) on Dagitaria sanguinales, Pre-emergence application after pre-treatment (Dagitaria sanguinales; 50 g a.i./ha, 187 DAT): 100%
Herbicidal effect (%) on Dagitaria sanguinales, Pre-emergence application after pre-treatment (Dagitaria sanguinales; 50 g a.i./ha, 207 DAT): 100%
Herbicidal effect (%) on Dagitaria sanguinales, Pre-emergence application after pre-treatment (Dagitaria sanguinales; 50 g a.i./ha, 234 DAT): 100%
Herbicidal effect (%) on Dagitaria sanguinales, Pre-emergence application after pre-treatment (Dagitaria sanguinales; 50 g a.i./ha, 259 DAT): 100%
Herbicidal effect (%) on Dagitaria sanguinales, Pre-emergence application after pre-treatment (Dagitaria sanguinales; 75 g a.i./ha, 187 DAT): 100%
Herbicidal effect (%) on Dagitaria sanguinales, Pre-emergence application after pre-treatment (Dagitaria sanguinales; 75 g a.i./ha, 207 DAT): 100%
Herbicidal effect (%) on Dagitaria sanguinales, Pre-emergence application after pre-treatment (Dagitaria sanguinales; 75 g a.i./ha, 234 DAT): 100%
Herbicidal effect (%) on Dagitaria sanguinales, Pre-emergence application after pre-treatment (Dagitaria sanguinales; 75 g a.i./ha, 259 DAT): 100%
Herbicidal effect (%) on Lamium amplexcaule, Post-emergence application without pre-treatment (Lamium amplexcaule; 25 g a.i./ha, 124 DAT): 91%
Herbicidal effect (%) on Lamium amplexcaule, Pre-emergence application after pre-treatment (Lamium amplexcaule; 25 g a.i./ha, 124 DAT): 58%
Herbicidal effect (%) on Lamium amplexcaule, Post-emergence application without pre-treatment (Lamium amplexcaule; 25 g a.i./ha, 151 DAT): 50%
Herbicidal effect (%) on Lamium amplexcaule, Pre-emergence application after pre-treatment (Lamium amplexcaule; 25 g a.i./ha, 151 DAT): 40%
Herbicidal effect (%) on Lamium amplexcaule, Post-emergence application without pre-treatment (Lamium amplexcaule; 50 g a.i./ha, 124 DAT): 89%
Herbicidal effect (%) on Lamium amplexcaule, Pre-emergence application after pre-treatment (Lamium amplexcaule; 50 g a.i./ha, 124 DAT): 100%
Herbicidal effect (%) on Lamium amplexcaule, Post-emergence application without pre-treatment (Lamium amplexcaule; 50 g a.i./ha, 151 DAT): 67%
Herbicidal effect (%) on Lamium amplexcaule, Pre-emergence application after pre-treatment (Lamium amplexcaule; 50 g a.i./ha, 151 DAT): 90%
Herbicidal effect (%) on Lamium amplexcaule, Post-emergence application without pre-treatment (Lamium amplexcaule; 75 g a.i./ha, 124 DAT): 83%
Herbicidal effect (%) on Lamium amplexcaule, Pre-emergence application after pre-treatment (Lamium amplexcaule; 75 g a.i./ha, 124 DAT): 100%
Herbicidal effect (%) on Lamium amplexcaule, Post-emergence application without pre-treatment (Lamium amplexcaule; 75 g a.i./ha, 151 DAT): 67%
Herbicidal effect (%) on Lamium amplexcaule, Pre-emergence application after pre-treatment (Lamium amplexcaule; 75 g a.i./ha, 151 DAT): 100%
Phytotoxicity (%) on Turf ([1]; 25 g a.i./ha, section with glyphosate pre-treatment (Table 20)): 0%
Phytotoxicity (%) on Turf ([1]; 25 g a.i./ha, section without pre-treatment (Table 21)): 0%
Phytotoxicity (%) on Turf ([1]; 50 g a.i./ha, section with glyphosate pre-treatment (Table 20)): 0%
Phytotoxicity (%) on Turf ([1]; 50 g a.i./ha, section without pre-treatment (Table 21)): 0%
Phytotoxicity (%) on Turf ([1]; 75 g a.i./ha, section with glyphosate pre-treatment (Table 20)): 0%
Phytotoxicity (%) on Turf ([1]; 75 g a.i./ha, section without pre-treatment (Table 21)): 0%
Herbicidal effect (%) on Aphanes arvensis, Post-emergence application without pre-treatment (Aphanes arvensis; 25 g a.i./ha): 100%
Herbicidal effect (%) on Aphanes arvensis, Pre-emergence application after pre-treatment (Aphanes arvensis; 25 g a.i./ha): 50%
Herbicidal effect (%) on Aphanes arvensis, Post-emergence application without pre-treatment (Aphanes arvensis; 50 g a.i./ha): 33%
Herbicidal effect (%) on Aphanes arvensis, Pre-emergence application after pre-treatment (Aphanes arvensis; 50 g a.i./ha): 100%
Herbicidal effect (%) on Aphanes arvensis, Post-emergence application without pre-treatment (Aphanes arvensis; 75 g a.i./ha): 100%
Herbicidal effect (%) on Aphanes arvensis, Pre-emergence application after pre-treatment (Aphanes arvensis; 75 g a.i./ha): 100%
Herbicidal effect (%) on Stellaria media, Post-emergence application without pre-treatment (Stellaria media; 25 g a.i./ha, 124 DAT): 100%
Herbicidal effect (%) on Stellaria media, Pre-emergence application after pre-treatment (Stellaria media; 25 g a.i./ha, 124 DAT): 75%
Herbicidal effect (%) on Stellaria media, Post-emergence application without pre-treatment (Stellaria media; 25 g a.i./ha, 151 DAT): 100%
Herbicidal effect (%) on Stellaria media, Pre-emergence application after pre-treatment (Stellaria media; 25 g a.i./ha, 151 DAT): 71%
Herbicidal effect (%) on Stellaria media, Post-emergence application without pre-treatment (Stellaria media; 50 g a.i./ha, 124 DAT): 100%
Herbicidal effect (%) on Stellaria media, Pre-emergence application after pre-treatment (Stellaria media; 50 g a.i./ha, 124 DAT): 100%
Herbicidal effect (%) on Stellaria media, Post-emergence application without pre-treatment (Stellaria media; 50 g a.i./ha, 151 DAT): 100%
Herbicidal effect (%) on Stellaria media, Pre-emergence application after pre-treatment (Stellaria media; 50 g a.i./ha, 151 DAT): 100%
Herbicidal effect (%) on Stellaria media, Post-emergence application without pre-treatment (Stellaria media; 75 g a.i./ha, 124 DAT): 100%
Herbicidal effect (%) on Stellaria media, Pre-emergence application after pre-treatment (Stellaria media; 75 g a.i./ha, 124 DAT): 100%
Herbicidal effect (%) on Stellaria media, Post-emergence application without pre-treatment (Stellaria media; 75 g a.i./ha, 151 DAT): 100%
Herbicidal effect (%) on Stellaria media, Pre-emergence application after pre-treatment (Stellaria media; 75 g a.i./ha, 151 DAT): 100%
Herbicidal effect (%) 7 DAT on Taraxacum officinalis (Taraxacum officinalis): 20%
Herbicidal effect (%) on Poa annua (Poa annua; 12.5 g a.i./ha): 70%
Herbicidal effect (%) on Poa annua (Poa annua; 25.0 g a.i./ha): 97%
Herbicidal effect (%) on Poa annua (Poa annua; 50.0 g a.i./ha): 100%
Herbicidal effect (%) on Poa annua (Poa annua; 100.0 g a.i./ha): 100%
Herbicidal effect (%) on Poa annua (Poa annua; 200.0 g a.i./ha): 100%
Herbicidal effect (%) on Digitaria sanguinalis (Digitaria sanguinalis; 12.5 g a.i./ha, 35 DAT): 87%
Herbicidal effect (%) on Digitaria sanguinalis (Digitaria sanguinalis; 12.5 g a.i./ha, 56 DAT): 63%
Herbicidal effect (%) on Digitaria sanguinalis (Digitaria sanguinalis; 12.5 g a.i./ha, 68 DAT): 73%
Herbicidal effect (%) on Digitaria sanguinalis (Digitaria sanguinalis; 12.5 g a.i./ha, 107 DAT): 70%
Herbicidal effect (%) on Digitaria sanguinalis (Digitaria sanguinalis; 12.5 g a.i./ha, 138 DAT): 43%
Herbicidal effect (%) on Digitaria sanguinalis (Digitaria sanguinalis; 12.5 g a.i./ha, 180 DAT): 57%
Herbicidal effect (%) on Digitaria sanguinalis (Digitaria sanguinalis; 25.0 g a.i./ha, 35 DAT): 95%
Herbicidal effect (%) on Digitaria sanguinalis (Digitaria sanguinalis; 25.0 g a.i./ha, 56 DAT): 96%
Herbicidal effect (%) on Digitaria sanguinalis (Digitaria sanguinalis; 25.0 g a.i./ha, 68 DAT): 98%
Herbicidal effect (%) on Digitaria sanguinalis (Digitaria sanguinalis; 25.0 g a.i./ha, 107 DAT): 97%
Herbicidal effect (%) on Digitaria sanguinalis (Digitaria sanguinalis; 25.0 g a.i./ha, 138 DAT): 93%
Herbicidal effect (%) on Digitaria sanguinalis (Digitaria sanguinalis; 25.0 g a.i./ha, 180 DAT): 93%
Herbicidal effect (%) on Digitaria sanguinalis (Digitaria sanguinalis; 50.0 g a.i./ha, 35 DAT): 97%
Herbicidal effect (%) on Digitaria sanguinalis (Digitaria sanguinalis; 50.0 g a.i./ha, 56 DAT): 98%
Herbicidal effect (%) on Digitaria sanguinalis (Digitaria sanguinalis; 50.0 g a.i./ha, 68 DAT): 99%
Herbicidal effect (%) on Digitaria sanguinalis (Digitaria sanguinalis; 50.0 g a.i./ha, 107 DAT): 99%
Herbicidal effect (%) on Digitaria sanguinalis (Digitaria sanguinalis; 50.0 g a.i./ha, 138 DAT): 100%
Herbicidal effect (%) on Digitaria sanguinalis (Digitaria sanguinalis; 50.0 g a.i./ha, 180 DAT): 100%
Herbicidal effect (%) on Digitaria sanguinalis (Digitaria sanguinalis; 100.0 g a.i./ha, 35 DAT): 96%
Herbicidal effect (%) on Digitaria sanguinalis (Digitaria sanguinalis; 100.0 g a.i./ha, 56 DAT): 99%
Herbicidal effect (%) on Digitaria sanguinalis (Digitaria sanguinalis; 100.0 g a.i./ha, 68 DAT): 99%
Herbicidal effect (%) on Digitaria sanguinalis (Digitaria sanguinalis; 100.0 g a.i./ha, 107 DAT): 99%
Herbicidal effect (%) on Digitaria sanguinalis (Digitaria sanguinalis; 100.0 g a.i./ha, 138 DAT): 99%
Herbicidal effect (%) on Digitaria sanguinalis (Digitaria sanguinalis; 100.0 g a.i./ha, 180 DAT): 99%
Herbicidal effect (%) on Digitaria sanguinalis (Digitaria sanguinalis; 200.0 g a.i./ha, 35 DAT): 98%
Herbicidal effect (%) on Digitaria sanguinalis (Digitaria sanguinalis; 200.0 g a.i./ha, 56 DAT): 99%
Herbicidal effect (%) on Digitaria sanguinalis (Digitaria sanguinalis; 200.0 g a.i./ha, 68 DAT): 99%
Herbicidal effect (%) on Digitaria sanguinalis (Digitaria sanguinalis; 200.0 g a.i./ha, 107 DAT): 100%
Herbicidal effect (%) on Digitaria sanguinalis (Digitaria sanguinalis; 200.0 g a.i./ha, 138 DAT): 100%
Herbicidal effect (%) on Digitaria sanguinalis (Digitaria sanguinalis; 200.0 g a.i./ha, 180 DAT): 100%
